Experimental data taken from US20060173080A1, “Methods of modulating TNF using bupropion” (The Regents of the University of California, priority 2002, published 2006).
Entries after “also recorded” stand apart in the source; their conditions may differ. Structures can show the parent of a compound that is named as a salt.

Columns and labels:
[1] = tested on: major depression; experiment: Course of major depression in the case patients on bupropion; type: in vivo, human; details: case patients on bupropion 150 mg BID or TID; hydrochloride
Experimental: After careful review of treatment options, they were started on bupropion (fluoxetine was stopped) with up-titration to 150 mg twice a day. Their abdominal complaints eased over the next months, and the major depression remitted. The baseline dysthymia remained. To better treat the dysthymia, bupropion was raised to 150 mg three times daily with a further lowering of their CDAI. The mesalamine was tapered off. Their CDAI is currently approximately zero. They have one well-formed bowel movement daily and has been without abdominal symptoms or encopresis for 19 months now. They have had no CD flares since starting bupropion. Twice in the last year, they stopped bupropion on their own accord because they felt completely well and felt they didn't need bupropion anymore. […] A person with NYSHA Class I CHF who started on bupropion for major depression. Their TNF before bupropion was 347 pg/ml and 5 pg/ml after two months on bupropion 150 mg twice a day (BID). […] In addition, a person with a history of two myocardial infarctions and NYSHA Class II CHF, who started on bupropion for major depression and desire to stop a 1.5 container/day chewing tobacco habit. Their TNF before starting bupropion was 433 pg/ml, and […] and then four weeks on bupropion 150 mg three times a day (TID). They subsequently stopped using tobacco and their depression is in remission.

[2] = tested on: TNF-alpha; experiment: TNF level in patients with congestive heart failure before and on bupropion; type: in vivo, human; details: for TNF: NYSHA Class I CHF
Experimental: A person with NYSHA Class I CHF who started on bupropion for major depression. Their TNF before bupropion was 347 pg/ml and 5 pg/ml after two months on bupropion 150 mg twice a day (BID). […] In addition, a person with a history of two myocardial infarctions and NYSHA Class II CHF, who started on bupropion for major depression and desire to stop a 1.5 container/day chewing tobacco habit. Their TNF before starting bupropion was 433 pg/ml, and […] and then four weeks on bupropion 150 mg three times a day (TID). They subsequently stopped using tobacco and their depression is in remission. Finally, a person with NYSHA Class I CHF-TNF was 303 pg/ml before bupropion was started for depression and 7 pg/ml on 150 mg TID.

[3] = tested on: IL-1beta; experiment: Serum IL-1beta by ELISA in LPS-challenged mice; type: in vivo, BALB/c mice; details: bupropion 100 mg/kg i.p. 1 h before 600 μg LPS i.p., serum 90 min after LPS
Experimental: To study the immunomodulatory effects of bupropion we used a mouse model in which TNF production is induced by stimulation with lipopolysaccharide (LPS) (Bozza et al, The PACAP-type I receptor agonist maxadilan from sand fly saliva protects mice against lethal endotoxemia by a mechanism partially dependent on IL-10, Eur. J. Immunol. 28, 3120-3127, 1998). BALB/c mice were injected intraperitoneally (i.p.) with bupropion or placebo 1 h prior to i.p. injection of LPS (600 ug/mouse).
Male, 6 weeks old BALB/c mice were used in LPS-induced shock experiments. All mice were raised and maintained at the animal facilities at the Goncalo Moniz Research Center-FIOCRUZ, and provided with rodent diet and water ad libitum. Animal numbers in experimental groups were the minimum necessary to permit statistical analysis. All animals were sacrificed under anaesthesia. […]
TNF, IL-1beta, IFN-gamma and IL-10 concentrations in serum samples or in supernatants from macrophage cultures were determined by enzyme-linked immunosorbent assay (ELISA) using antibody pairs and recombinant cytokines from R&D systems (Minneapolis, Minn., USA), according to the manufacturer's instructions. After incubation with streptoavidin-peroxidase conjugate (Sigma), the reaction was developed using 3,3′, 5,5′-tetramethylbenzidine (TMB) peroxidase substrate and read at 450 nm. The serum concentration of nitrite (NO2−) was determined by the Griess reaction, as an indicator of nitric oxide production (Green et al., Analysis of nitrate nitrite and [^15N] nitrite in biological fluids. Anal. Biochem 126, 131-138, 1982). […] The absorbance of the reaction product at 540 nm was measured using an ELISA reader. The NO2^− concentration was determined by using sodium nitrite as standard. Data were analyzed using Student's t test, one-way ANOVA or Newman-Keuls multiple comparison test, using Graph Pad Prism 3.0 software. […]

CC(NC(C)(C)C)C(=O)c1cccc(Cl)c1 (racemic) [bupropion, (.±.)-1-(3-chlorophenyl)-2-[(1,1-dimethylethyl)amino]-1-propanone hydrochloride]
depression outcome [1]: partially controlled; also recorded: in remission; also recorded: remitted | maintenance of low TNF ([2]; person two on bupropion): maintained for more than a year | TNF ([2]; person two, on bupropion 150 mg TID, 303 pg/ml before): 7 pg/mL | TNF ([2]; person, after two months on bupropion 150 mg BID, 347 pg/ml before): 5 pg/mL | change of TNF-alpha on bupropion ([2]; three patients with CHF): dropped profoundly | serum IL-1beta level compared with placebo ([3]; listed as bupropion hydrochloride): decrease | serum IL-1beta level compared with placebo ([3]; hydrochloride): significantly reduced | serum IL-1beta level compared with placebo ([3]; listed as Bupropion, hydrochloride): significantly decreased
